What was measured:
Type in all cases: biochemical
[1] = biological target: human JAK2 catalytic kinase (JH1) domain (Homo sapiens (Human), UniProt O60674); assay: ADP-Glo Kinase Assay, recombinant JAK2 catalytic kinase (JH1) domain; conditions: recombinant JH1 domain 0.2 nM, 15 μM ATP, JAK3-974 peptide, mean, read-out: JAK2 biochem IC50 (nM) Mean
Procedure, shortened: (§1)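 Kinase 4 nM JAK1 / 0.2 nM JAK2 / 0.3 nM JAK3 / 2 nM TYK2; 50 μM peptide; 100 min. Unused ATP depleted, ADP→ATP, luciferase luminescence. 11-pt 3-fold series from 10 or 1 μM; normalized, 4PL fit → IC50.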

[2] = biological target: human TYK2 catalytic kinase (JH1) domain (Homo sapiens (Human), UniProt P29597); assay: ADP-Glo Kinase Assay, recombinant TYK2 catalytic kinase (JH1) domain; conditions: recombinant JH1 domain 2 nM, 10 μM ATP, JAK3-974 peptide, mean, read-out: TYK2 biochem IC50 (nM) Mean
Procedure, shortened: as §1

[3] = biological target: human JAK1 catalytic kinase (JH1) domain (Homo sapiens (Human), UniProt P23458); assay: ADP-Glo Kinase Assay, recombinant JAK1 catalytic kinase (JH1) domain; conditions: recombinant JH1 domain 4 nM, 35 μM ATP, JAK3-342 peptide, mean, read-out: JAK1 biochem IC50 (nM) Mean
Procedure, shortened: as §1

[4] = biological target: human JAK3 catalytic kinase (JH1) domain (Homo sapiens (Human), UniProt P52333); assay: ADP-Glo Kinase Assay, recombinant JAK3 catalytic kinase (JH1) domain; conditions: recombinant JH1 domain 0.3 nM, 4 μM ATP, JAK3-974 peptide, mean, read-out: JAK3 biochem IC50 (nM) Mean
Procedure, shortened: as §1

Chain of human JAK3 catalytic kinase (JH1) domain (P52333 822-1111): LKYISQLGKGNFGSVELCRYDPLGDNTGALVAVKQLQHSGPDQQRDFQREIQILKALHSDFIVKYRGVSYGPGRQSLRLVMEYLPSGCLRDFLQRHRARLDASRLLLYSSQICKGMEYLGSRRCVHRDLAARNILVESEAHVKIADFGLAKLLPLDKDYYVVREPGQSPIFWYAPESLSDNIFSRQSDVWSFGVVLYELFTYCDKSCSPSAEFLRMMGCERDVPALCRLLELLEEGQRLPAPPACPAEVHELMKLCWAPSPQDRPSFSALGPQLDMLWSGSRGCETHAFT
Chain of human JAK1 catalytic kinase (JH1) domain (P23458 875-1153): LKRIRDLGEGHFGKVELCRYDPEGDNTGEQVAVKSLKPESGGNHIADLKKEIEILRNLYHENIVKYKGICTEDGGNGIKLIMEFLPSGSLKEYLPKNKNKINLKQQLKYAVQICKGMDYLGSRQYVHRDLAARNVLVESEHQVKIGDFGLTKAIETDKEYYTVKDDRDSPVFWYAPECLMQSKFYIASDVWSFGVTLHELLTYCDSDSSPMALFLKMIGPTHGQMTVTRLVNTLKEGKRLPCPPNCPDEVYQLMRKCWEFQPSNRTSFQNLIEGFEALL
Chain of human TYK2 catalytic kinase (JH1) domain (P29597 897-1176): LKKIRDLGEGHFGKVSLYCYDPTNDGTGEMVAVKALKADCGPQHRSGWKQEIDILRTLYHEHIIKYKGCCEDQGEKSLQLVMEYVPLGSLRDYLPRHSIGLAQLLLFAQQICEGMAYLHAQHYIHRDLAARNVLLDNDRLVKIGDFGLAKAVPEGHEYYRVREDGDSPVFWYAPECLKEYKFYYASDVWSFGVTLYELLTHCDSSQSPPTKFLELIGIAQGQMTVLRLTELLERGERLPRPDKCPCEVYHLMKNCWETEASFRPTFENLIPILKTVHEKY
Chain of human JAK2 catalytic kinase (JH1) domain (O60674 849-1124): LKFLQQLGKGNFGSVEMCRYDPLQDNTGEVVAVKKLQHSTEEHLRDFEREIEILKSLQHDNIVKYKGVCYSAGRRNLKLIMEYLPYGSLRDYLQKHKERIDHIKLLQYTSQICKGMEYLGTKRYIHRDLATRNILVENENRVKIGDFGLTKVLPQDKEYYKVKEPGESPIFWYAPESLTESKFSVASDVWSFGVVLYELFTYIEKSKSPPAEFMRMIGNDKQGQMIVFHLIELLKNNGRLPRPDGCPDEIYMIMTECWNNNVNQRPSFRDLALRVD

Compound	IC50 [1] [nM]	IC50 [2] [nM]	IC50 [3] [nM]	IC50 [4] [nM]
O=C(C1CC1)N1C2CCC1CN(c1ncnn3cc(-c4cnn(CF)c4)cc13)C2 [Example 155]	5180	293	1810	4000
Cn1ccc(-c2cc3c(N4CC5CCC(C4)N5C(=O)[C@@H]4C[C@H]4F)ccnn3c2)cc1=O [Example 171]	28	1.5	136	322
O=C([C@@H]1C[C@H]1CO)N1C2CCC1CN(c1ncnn3cc(-c4cnn(C(F)F)c4)cc13)C2 (single isomer, unassigned) [Example 40]	9400	289	5120	≥ 10000
CC(C)C(=O)N1C2CCC1CN(c1ncnn3cc(-c4cnn(C)c4)cc13)C2 [Example 58, 2-methyl-1-(3-(6-(1-methyl-1H-pyrazol-4-yl)pyrrolo[2,1-f][1,2,4]triazin-4-yl)-3,8-diazabicyclo[3.2.1]octan-8-yl)propan-1-one]	10000	960	10000	10000
Cn1ncc(-c2cc3c(N4CC5CCC(C4)N5C(=O)[C@@H]4C[C@H]4F)ccnn3c2)c1F [Example 133, (3-(6-(5-fluoro-1-methyl-1H-pyrazol-4-yl)pyrrolo[1,2-b]pyridazin-4-yl)-3,8-diazabicyclo[3.2.1]octan-8-yl)((1S,2R)-2-fluorocyclopropyl)methanone]	112	6	124	856
O=C(C1CC1)N1C2CCC1CN(c1ncnn3cc(-c4cccnc4)cc13)C2 [Example 183]	10000	557	3290	8640
O=C([C@@H]1C[C@H]1F)N1C2CCC1CN(c1ccnn3cc(-c4ccnc(N5CCC5)c4)cc13)C2 [Example 119, (3-(6-(2-(azetidin-1-yl)pyridin-4-yl)pyrrolo[1,2-b]pyridazin-4-yl)-3,8-diazabicyclo[3.2.1]octan-8-yl)((1S,2R)-2-fluorocyclopropyl)methanone]	215	45	1720	5520
O=C([C@@H]1C[C@H]1F)N1C2CCC1CN(c1ccnn3cc([C@@H]4CC4(F)F)cc13)C2 (single isomer, unassigned) [Example 136]	≥ 10000	381	6180	≥ 10000
Cn1cnc(-c2cc3c(N4CC5CCC(C4)N5C(=O)C4CC4)ncnn3c2)c1 [Example 143, Cyclopropyl(3-(6-(1-methyl-1H-imidazol-4-yl)pyrrolo[2,1-f][1,2,4]triazin-4-yl)-3,8-diazabicyclo[3.2.1]octan-8-yl)methanone]	9940	533	10000	9690
O=C(C1C(F)(F)C12CCC2)N1C2CCC1CN(c1ncnn3cc(-c4cnn(C(F)F)c4)cc13)C2 (stereo not shown) [Example 7, (3-(6-(1-(difluoromethyl)-1H-pyrazol-4-yl)pyrrolo[2,1-f][1,2,4]triazin-4-yl)-3,8-diazabicyclo[3.2.1]octan-8-yl)(2,2-difluorospiro[2.3]hexan-1-yl)methanone]	3960	156	960	6300
O=C(N1C2CCC1CN(c1ncnn3cc(-c4cnn(C(F)F)c4)cc13)C2)C(F)(F)F [Example 86, 1-(3-(6-(1-(difluoromethyl)-1H-pyrazol-4-yl)pyrrolo[2,1-f][1,2,4]triazin-4-yl)-3,8-diazabicyclo[3.2.1]octan-8-yl)-2,2,2-trifluoroethan-1-one]	6080	334	1030	5090
Cn1cc(-c2cc3c(N4CC5CCC(C4)N5C(=O)[C@H]4C[C@@H]4F)ncnn3c2)cn1 [Example 6, ((1R,2S)-2-fluorocyclopropyl)(3-(6-(1-methyl-1H-pyrazol-4-yl)pyrrolo[2,1-f][1,2,4]triazin-4-yl)-3,8-diazabicyclo[3.2.1]octan-8-yl)methanone]	2260	133	682	827
Cn1cc(-c2cc3c(N4CC5CCC(C4)N5C(=O)[C@H]4C[C@@H]4F)ncnn3c2)cn1 (single isomer, unassigned) [Example 81]	1450	31.2	1420	5610
O=C(C1C(F)(F)C12CC2)N1C2CCC1CN(c1ncnn3cc(-c4cnn(C(F)F)c4)cc13)C2 (stereo not shown) [Example 10, (3-(6-(1-(difluoromethyl)-1H-pyrazol-4-yl)pyrrolo[2,1-f][1,2,4]triazin-4-yl)-3,8-diazabicyclo[3.2.1]octan-8-yl)(2,2-difluorospiro[2.2]pentan-1-yl)methanone]	4330	207	969	3220
CCC(=O)N1C2CCC1CN(c1ncnn3cc(-c4cnn(C(F)F)c4)cc13)C2 [Example 41, 1-(3-(6-(1-(difluoromethyl)-1H-pyrazol-4-yl)pyrrolo[2,1-f][1,2,4]triazin-4-yl)-3,8-diazabicyclo[3.2.1]octan-8-yl)propan-1-one]	8760	560	2260	8430
Cc1cc(-c2cc3c(N4CC5CCC(C4)N5C(=O)C4CC4)ncnn3c2)on1 [Example 158, Cyclopropyl(3-(6-(3-methylisoxazol-5-yl)pyrrolo[2,1-f][1,2,4]triazin-4-yl)-3,8-diazabicyclo[3.2.1]octan-8-yl)methanone]	10000	656	8060	10000
O=C(C1CC1)N1C2CCC1CN(c1ncnn3cc(-c4cnn(C(F)(F)F)c4)cc13)C2 [Example 154]	10000	490	2950	10000
O=C([C@@H]1C[C@H]1F)N1C2CCC1CN(c1ncnc3[nH]c(-c4ccnc(C(F)(F)F)c4)cc13)C2 [Example 223, ((1S,2R)-2-fluorocyclopropyl)(3-(6-(2-(trifluoromethyl)pyridin-4-yl)-7H-pyrrolo[2,3-d]pyrimidin-4-yl)-3,8-diazabicyclo[3.2.1]octan-8-yl)methanone]	352	23.9	308	1620
N#Cc1ccc(-c2cc3c(N4CC5CCC(C4)N5C(=O)[C@@H]4C[C@H]4F)ncnc3[nH]2)cn1 [Example 227, 5-(4-(8-((1S,2R)-2-fluorocyclopropane-1-carbonyl)-3,8-diazabicyclo[3.2.1]octan-3-yl)-7H-pyrrolo[2,3-d]pyrimidin-6-yl)picolinonitrile]	418	31.6	268	1590
O=C(C1CC1)N1C2CCC1CN(c1ncnn3cc(-c4cnn([C@@H]5CCOC5)c4)cc13)C2 [Example 156, cyclopropyl(3-(6-(1-((R)-tetrahydrofuran-3-yl)-1H-pyrazol-4-yl)pyrrolo[2,1-f][1,2,4]triazin-4-yl)-3,8-diazabicyclo[3.2.1]octan-8-yl)methanone]	3860	251	1500	3850
Cn1cc(-c2cc3c(N4CC5CCC(C4)N5C(=O)CC#N)ncnn3c2)cn1 [Example 62, 3-(3-(6-(1-methyl-1H-pyrazol-4-yl)pyrrolo[2,1-f][1,2,4]triazin-4-yl)-3,8-diazabicyclo[3.2.1]octan-8-yl)-3-oxopropanenitrile]	8710	351	860	6830
Cn1cc(-c2cc3c(N4CC5CCC(C4)N5C(=O)C4CC4(F)F)ncnn3c2)cn1 (stereo not shown) [Example 63, (2,2-difluorocyclopropyl)(3-(6-(1-methyl-1H-pyrazol-4-yl)pyrrolo[2,1-f][1,2,4]triazin-4-yl)-3,8-diazabicyclo[3.2.1]octan-8-yl)methanone]	3050	117	787	4530
COc1cc(-c2nc3c(N4CC5CCC(C4)N5C(=O)[C@@H]4C[C@H]4F)ccnc3[nH]2)ccn1 [Example 203, ((1S,2R)-2-fluorocyclopropyl)(3-(2-(2-methoxypyridin-4-yl)-3H-imidazo[4,5-b]pyridin-7-yl)-3,8-diazabicyclo[3.2.1]octan-8-yl)methanone]	42	7	19	578
O=S(=O)(C1CC1)N1C2CCC1CN(c1ncnn3cc(-c4cnn(C(F)F)c4)cc13)C2 [Example 188, 4-(8-(cyclopropylsulfonyl)-3,8-diazabicyclo[3.2.1]octan-3-yl)-6-(1-(difluoromethyl)-1H-pyrazol-4-yl)pyrrolo[2,1-f][1,2,4]triazine]	5890	615	9740	9390
Cn1cc(-c2nc3c(N4CC5CCC(C4)N5C(=O)[C@@H]4C[C@H]4F)c(F)cnc3[nH]2)c(F)n1 [Example 213, (3-(6-fluoro-2-(3-fluoro-1-methyl-1H-pyrazol-4-yl)-3H-imidazo[4,5-b]pyridin-7-yl)-3,8-diazabicyclo[3.2.1]octan-8-yl)((1S,2R)-2-fluorocyclopropyl)methanone]	25	2.5	37	87

— patent US20240360157A1, “TYK2 INHIBITORS” (BIOGEN MA INC., priority 2021, published 2024)
